Results taken from patent US8569267B2, “Tetracyclic tetrahydrofuran derivatives containing cyclic amine side chain” (Janssen Pharmaceutica, NV, priority 2005, dated 2013).

Legend:
[1] = target: T1, human cloned 5-HT2C receptor, expressed in CHO cells (Homo sapiens, UniProt P28335); experiment: In vitro binding affinity for 5-HT2C receptor ([3H]mesulergine radioligand binding); details: human cloned 5-HT2C receptor; for IC50: read-out: 5-HT2C pIC50 (converted)
T1 construct: expressed in transfected cells; host or cells: CHO cells
T1 sequence (P28335 33-458): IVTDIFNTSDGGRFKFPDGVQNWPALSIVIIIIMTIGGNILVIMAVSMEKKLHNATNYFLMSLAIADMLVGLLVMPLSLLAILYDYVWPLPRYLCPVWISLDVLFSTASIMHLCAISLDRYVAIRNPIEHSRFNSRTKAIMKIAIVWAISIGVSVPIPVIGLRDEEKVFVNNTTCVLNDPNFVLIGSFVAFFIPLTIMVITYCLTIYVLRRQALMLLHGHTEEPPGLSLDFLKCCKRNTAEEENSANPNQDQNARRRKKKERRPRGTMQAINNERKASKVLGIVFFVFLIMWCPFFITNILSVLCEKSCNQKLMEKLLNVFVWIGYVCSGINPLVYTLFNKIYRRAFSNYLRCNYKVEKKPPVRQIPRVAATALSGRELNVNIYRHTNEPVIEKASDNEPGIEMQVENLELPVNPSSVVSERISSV
How it was run: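 Competition radioligand binding: varying test-compound concentrations incubated with receptor preparation and radioligand to binding equilibrium. Bound radioactivity separated from free and counted; affinity inferred from concentration-dependent inhibition of radioligand binding.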

[2] = target: T2, human Dopamine D2L receptor (Homo sapiens, UniProt P14416); experiment: In vitro binding affinity for human D2L receptor ([3H]Spiperone binding); details: human D2L receptor-transfected CHO cell membranes; for IC50: read-out: D2L pIC50 (converted)
T2 construct: expressed in transfected cells; host or cells: CHO cells
T2 sequence (P14416 whole entry): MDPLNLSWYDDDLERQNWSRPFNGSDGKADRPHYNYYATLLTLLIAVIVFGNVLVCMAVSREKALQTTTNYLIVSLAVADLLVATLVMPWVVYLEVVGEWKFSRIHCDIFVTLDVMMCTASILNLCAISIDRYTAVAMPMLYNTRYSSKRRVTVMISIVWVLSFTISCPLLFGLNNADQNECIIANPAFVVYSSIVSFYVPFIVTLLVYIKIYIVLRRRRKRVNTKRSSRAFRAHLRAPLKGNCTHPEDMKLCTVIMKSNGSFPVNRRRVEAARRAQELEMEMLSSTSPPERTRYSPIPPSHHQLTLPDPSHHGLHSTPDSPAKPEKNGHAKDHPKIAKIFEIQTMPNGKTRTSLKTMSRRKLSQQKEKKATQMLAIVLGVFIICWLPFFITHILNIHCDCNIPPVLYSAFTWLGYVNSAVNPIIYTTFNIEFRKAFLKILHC
How it was run: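 Membranes from CHO cells transfected with the receptor were incubated with [3H]Spiperone (diluted to 2 nmol/L before addition) and compound for 30 min at 37° C. Buffer was Tris-HCl, pH 7.7, with NaCl, CaCl2, MgCl2 and KCl, and non-specific binding was defined with 10^−6 mol/l Butaclamol. Bound radioactivity was collected by filtration, counted by scintillation, and competition curves calculated as percent specific binding.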

[3] = target: T3, NET (norepinephrine transporter) (Rattus norvegicus, UniProt Q63380); experiment: In vitro determination of NET reuptake inhibition ([3H]Nixosetine binding, rat brain cortex); details: rat brain cortex; for IC50: read-out: NET pIC50 (converted)
T3 construct: Cortex from rat brain was collected and homogenised; from tissue; host or cells: rat brain cortex
T3 sequence (Q63380 1-617): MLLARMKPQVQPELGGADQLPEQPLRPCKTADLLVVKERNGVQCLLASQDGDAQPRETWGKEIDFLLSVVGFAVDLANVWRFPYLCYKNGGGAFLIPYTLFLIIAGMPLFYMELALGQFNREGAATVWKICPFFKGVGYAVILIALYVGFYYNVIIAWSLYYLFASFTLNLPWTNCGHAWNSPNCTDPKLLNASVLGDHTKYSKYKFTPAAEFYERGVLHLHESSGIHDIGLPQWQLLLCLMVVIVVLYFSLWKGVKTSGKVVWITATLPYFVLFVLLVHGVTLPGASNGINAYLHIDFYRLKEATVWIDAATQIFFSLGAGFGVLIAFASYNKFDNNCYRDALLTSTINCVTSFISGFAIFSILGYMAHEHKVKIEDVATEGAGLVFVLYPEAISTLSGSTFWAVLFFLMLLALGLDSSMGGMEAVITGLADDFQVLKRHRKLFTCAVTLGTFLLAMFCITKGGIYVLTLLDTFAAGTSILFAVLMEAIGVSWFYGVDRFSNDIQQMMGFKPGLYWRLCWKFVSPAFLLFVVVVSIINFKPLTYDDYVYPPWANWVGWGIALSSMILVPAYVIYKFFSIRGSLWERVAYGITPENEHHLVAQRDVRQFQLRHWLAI
How it was run: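 Rat cortex homogenised in Tris 50 mM, NaCl 120 mM, KCl 5 mM, pH 7.4 was used for competition binding against [3H]nisoxetine. Bound radioligand was collected by filtration on GF/B filters and counted by scintillation. Percentage specific binding and competition curves were derived.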

[4] = target: T4, human cloned 5-HT2A receptor, expressed in L929 cells (Homo sapiens, UniProt P28223); experiment: In vitro binding affinity for 5-HT2A receptor ([125I]R91150 radioligand binding); details: human cloned 5-HT2A receptor in L929 cells, [125I]R91150; for IC50: read-out: 5-HT2A pIC50 (converted)
T4 construct: expressed in transfected cells; host or cells: L929 cells
T4 sequence (P28223 whole entry): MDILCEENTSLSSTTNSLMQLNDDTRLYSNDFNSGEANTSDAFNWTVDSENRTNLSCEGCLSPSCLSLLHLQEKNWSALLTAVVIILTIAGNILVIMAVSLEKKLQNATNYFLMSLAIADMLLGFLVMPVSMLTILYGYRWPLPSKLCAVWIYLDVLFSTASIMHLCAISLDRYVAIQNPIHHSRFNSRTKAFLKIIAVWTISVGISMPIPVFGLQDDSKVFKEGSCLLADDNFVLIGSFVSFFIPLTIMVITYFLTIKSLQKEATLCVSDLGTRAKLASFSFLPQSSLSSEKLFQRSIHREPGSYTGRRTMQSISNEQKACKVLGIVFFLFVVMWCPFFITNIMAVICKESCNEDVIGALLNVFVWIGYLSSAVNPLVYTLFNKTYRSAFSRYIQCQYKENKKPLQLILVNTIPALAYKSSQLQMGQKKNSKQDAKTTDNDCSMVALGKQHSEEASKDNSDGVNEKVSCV
How it was run: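 Competition radioligand binding to human cloned 5-HT2A receptor expressed in L929 cells, using [125I]R91150 with test compound at various concentrations. At equilibrium, receptor-bound radioactivity was separated from free and counted. Affinity reflects inhibition of radioligand binding.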

Fc1ccc2c(c1)C1OC(CN3CCN(Cc4cccs4)CC3)CC1c1ccccc1C2 (stereo not shown) [Compound 58]
IC50 [1]: 25.7 nM
IC50 [2]: 7.41 nM
IC50 [3]: 0.977 µM
IC50 [4]: 11 nM

Fc1ccc2c(c1)C1OC(CN3CCN(Cc4ccoc4)CC3)CC1c1ccccc1C2.O=C(O)C(F)(F)F (stereo not drawn) [Compound 61, [2R-(2α, 3aα, 12bβ)]1-(11-fluoro-3,3a,8,12b-tetrahydro-2H-1-oxa-dibenzo[e,h]-azulen-2-ylmethyl)-4-furan-3-ylmethyl-piperazine.trifluoroacetate (1:1)]
5-HT2C pIC50 [1]: 7.66
D2L pIC50 [2]: 8.09
NET pIC50 [3]: 5.88
5-HT2A pIC50 [4]: 8.03

OC1CCN(C[C@H]2C[C@@H]3c4ccccc4Cc4ccc(F)cc4[C@@H]3O2)C1 (stereo partly drawn) [Compound 1, [2R-(2α, 3aα, 12bβ)]-(3′RS) 1-(11-fluoro-3,3a,8,12b-tetrahydro-2H-1-oxa-dibenzo[e,h]azulen-2-ylmethyl)-pyrrolidin-3-ol.oxalate (1:1)]
IC50 [1]: 0.372 nM
IC50 [2]: 7.41 nM
IC50 [3]: 0.479 µM
IC50 [4]: 0.692 nM

COc1cccc(N2CCN(CC3CC4c5ccccc5Cc5ccc(F)cc5C4O3)CC2)n1 (stereo not shown) [Compound 118]
IC50 [1]: 7.59 nM
IC50 [2]: 26.3 nM
IC50 [3]: 2.82 µM
IC50 [4]: 4.9 nM

N#CCCNC(=O)C1CCN(CC2CC3c4ccccc4Cc4ccc(F)cc4C3O2)CC1 (stereo not shown) [Compound 174]
IC50 [1]: 2.19 nM
IC50 [2]: 15.1 nM
IC50 [3]: > 10 µM
IC50 [4]: 1.62 nM

NCCN1CCN(CC2CC3c4ccccc4Cc4ccc(F)cc4C3O2)CC1 (stereo not shown) [Compound 47]
IC50 [1]: 34.7 nM
IC50 [2]: 10 nM
IC50 [3]: > 10 µM
IC50 [4]: 6.46 nM

COc1ccccc1N1CCN(C(=O)C2CCN(CC3CC4c5ccccc5Cc5ccc(F)cc5C4O3)CC2)CC1 (stereo not shown) [Compound 203]
IC50 [1]: 3.09 nM
IC50 [2]: 16.6 nM
IC50 [3]: 4.47 µM
IC50 [4]: 3.63 nM

Fc1ccc2c(c1)C1OC(CN3CCN(C(=S)Nc4ccccc4)CC3)CC1c1ccccc1C2 (stereo not shown) [Compound 115]
IC50 [1]: 22.4 nM
IC50 [2]: 112 nM
IC50 [3]: 0.49 µM
IC50 [4]: 7.41 nM

CCOC(=O)CNC(=O)N1CCN(CC2CC3c4ccccc4Cc4ccc(F)cc4C3O2)CC1 (stereo not shown) [Compound 92]
IC50 [1]: 15.5 nM
IC50 [2]: 43.7 nM
IC50 [3]: > 10 µM
IC50 [4]: 2.57 nM

Fc1ccc(OCC2CCN(CC3CC4c5ccccc5Cc5ccc(F)cc5C4O3)C2)cc1 (stereo not shown) [Compound 26]
IC50 [1]: 5.62 nM
IC50 [2]: 3.63 nM
IC50 [3]: > 10 µM
IC50 [4]: 5.13 nM

Fc1ccc2c(c1)C1OC(CN3CCN(Cc4ccsc4)CC3)CC1c1ccccc1C2 (stereo not shown) [Compound 59]
IC50 [1]: 49 nM
IC50 [2]: 6.92 nM
IC50 [3]: 1.26 µM
IC50 [4]: 14.8 nM

OC(COc1ccc(Cl)cc1)CN1CCN(C[C@H]2C[C@@H]3c4ccccc4Cc4ccc(F)cc4[C@@H]3O2)CC1 (stereo partly shown) [Compound 56]
IC50 [1]: 10.2 nM
IC50 [2]: 26.3 nM
IC50 [3]: 5.62 µM
IC50 [4]: 6.03 nM

O=C(NC1CCCCC1)C1CCN(CC2CC3c4ccccc4Cc4ccc(F)cc4C3O2)CC1 (stereo not shown) [Compound 188]
IC50 [1]: 2.75 nM
IC50 [2]: 9.77 nM
IC50 [3]: > 10 µM
IC50 [4]: < 10 nM

CC(=O)C1(c2ccccc2)CCN(C(=O)C2CCN(CC3CC4c5ccccc5Cc5ccc(F)cc5C4O3)CC2)CC1 (stereo not shown) [Compound 209]
IC50 [1]: 12 nM
IC50 [2]: 31.6 nM
IC50 [3]: 5.25 µM
IC50 [4]: 4.68 nM

CCCCNC(=O)N1CCN(CC2CC3c4ccccc4Cc4ccc(F)cc4C3O2)CC1 (stereo not shown) [Compound 89]
IC50 [1]: 6.61 nM
IC50 [2]: 38.9 nM
IC50 [3]: > 10 µM
IC50 [4]: 2.82 nM

O=S(=O)(Cc1ccccc1)N1CCN(CC2CC3c4ccccc4Cc4ccc(F)cc4C3O2)CC1 (stereo not shown) [Compound 105]
IC50 [1]: 30.9 nM
IC50 [2]: 4.07 nM
IC50 [3]: > 10 µM
IC50 [4]: 4.68 nM

CC(C)NC(=O)N1CCN(CC2CC3c4ccccc4Cc4ccc(F)cc4C3O2)CC1 (stereo not shown) [Compound 88]
IC50 [1]: 5.5 nM
IC50 [2]: 22.9 nM
IC50 [3]: 6.46 µM
IC50 [4]: 0.38 nM

CC1(O)CCN(C[C@H]2C[C@@H]3c4ccccc4Cc4ccc(F)cc4[C@@H]3O2)C1 (stereo partly shown) [Compound 39]
IC50 [1]: 0.513 nM
IC50 [2]: 3.09 nM
IC50 [3]: 1.95 µM
IC50 [4]: 0.631 nM

O=C(O)C1CCN(C[C@H]2C[C@@H]3c4ccccc4Cc4ccc(F)cc4[C@@H]3O2)C1 (stereo partly shown) [Compound 10]
IC50 [1]: 13.5 nM
IC50 [2]: 437 nM
IC50 [3]: > 10 µM
IC50 [4]: 17.4 nM

N#CCC1CCN(CC2CC3c4ccccc4Cc4ccc(F)cc4C3O2)CC1 (stereo not shown) [Compound 168]
IC50 [1]: 9.33 nM
IC50 [2]: 2.82 nM
IC50 [3]: > 10 µM
IC50 [4]: 3.89 nM

C=CC1(O)CCN(CC2CC3c4ccccc4Cc4ccc(F)cc4C3O2)C1 (stereo not shown) [Compound 40]
IC50 [1]: 0.275 nM
IC50 [2]: 4.47 nM
IC50 [3]: > 10 µM
IC50 [4]: 1.23 nM

Fc1ccc2c(c1)C1OC(CN3CCN(Cc4cccc(Oc5ccccc5)c4)CC3)CC1c1ccccc1C2 (stereo not shown) [Compound 76]
IC50 [1]: 102 nM
IC50 [2]: 67.6 nM
IC50 [3]: 0.851 µM
IC50 [4]: 66.1 nM

Fc1ccc2c(c1)C1OC(CN3CCN(Cc4ccc(-c5ccc(Cl)cc5)o4)CC3)CC1c1ccccc1C2 (stereo not shown) [Compound 62]
IC50 [1]: 107 nM
IC50 [2]: 75.9 nM
IC50 [3]: 3.47 µM
IC50 [4]: 47.9 nM

CSCCNC(=O)N1CCN(CC2CC3c4ccccc4Cc4ccc(F)cc4C3O2)CC1 (stereo not shown) [Compound 87]
IC50 [1]: 3.09 nM
IC50 [2]: 25.7 nM
IC50 [3]: 5.89 µM
IC50 [4]: 1.26 nM

O=C(NCCCO)C1CCN(CC2CC3c4ccccc4Cc4ccc(F)cc4C3O2)CC1 (stereo not shown) [Compound 175]
IC50 [1]: 1.74 nM
IC50 [2]: 18.2 nM
IC50 [3]: > 10 µM
IC50 [4]: 0.759 nM

O=C(NC1CCCCC1)OCC1CCN(CC2CC3c4ccccc4Cc4ccc(F)cc4C3O2)C1 (mixture of isomers) [Compound 21]
IC50 [1]: 2.88 nM
IC50 [2]: 7.24 nM
IC50 [3]: 1.45 µM
IC50 [4]: 1.91 nM

CCOC(=O)C=C1CCN(CC2CC3c4ccccc4Cc4ccc(F)cc4C3O2)CC1 (stereo not shown) [Compound 165]
IC50 [1]: 27.5 nM
IC50 [2]: 38.9 nM
IC50 [3]: 3.63 µM
IC50 [4]: 10.7 nM

COC(=O)c1ccc(OC2CCN(CC3CC4c5ccccc5Cc5ccc(F)cc5C4O3)C2)cc1 (stereo not shown) [Compound 30]
IC50 [1]: 5.75 nM
IC50 [2]: 16.2 nM
IC50 [3]: > 10 µM
IC50 [4]: 10.5 nM

COc1ccc2c(c1)C1OC(CN3CCC(O)CC3)CC1c1ccccc1O2.O=C(O)C(=O)O (racemic) [Compound 287]
5-HT2C pIC50 [1]: 6.54
D2L pIC50 [2]: 6.17
NET pIC50 [3]: <5
5-HT2A pIC50 [4]: 7.62

Fc1ccc2c(c1)C1OC(CN3CCN(c4nc5ccccc5[nH]4)CC3)CC1c1ccccc1C2 (stereo not shown) [Compound 127]
IC50 [1]: 4.17 nM
IC50 [2]: 22.4 nM
IC50 [3]: 3.8 µM
IC50 [4]: 0.251 nM

Fc1cccc(OCC2CCN(CC3CC4c5ccccc5Cc5ccc(F)cc5C4O3)C2)c1 (stereo not shown) [Compound 27]
IC50 [1]: 4.27 nM
IC50 [2]: 3.89 nM
IC50 [3]: 5.01 µM
IC50 [4]: 8.71 nM

OC1CCN(CC2CC3c4ccccc4Sc4ccc(F)cc4C3O2)C1 (racemic) [Compound 44]
IC50 [1]: 9.33 nM
IC50 [2]: 10 nM
IC50 [3]: 0.282 µM
IC50 [4]: < 10 nM

COc1ccc(CNC(=O)N2CCN(CC3CC4c5ccccc5Cc5ccc(F)cc5C4O3)CC2)c(OC)c1 (stereo not shown) [Compound 96]
IC50 [1]: 6.76 nM
IC50 [2]: 8.91 nM
IC50 [3]: > 10 µM
IC50 [4]: 16.2 nM

CC(C)(C)NC(=O)C1CCN(CC2CC3c4ccccc4Cc4ccc(F)cc4C3O2)CC1 (stereo not shown) [Compound 173]
IC50 [1]: 5.75 nM
IC50 [2]: 13.2 nM
IC50 [3]: 6.46 µM
IC50 [4]: 0.724 nM

CS(=O)(=O)N1CCN(CC2CC3c4ccccc4Cc4ccc(F)cc4C3O2)CC1 (stereo not shown) [Compound 102]
IC50 [1]: 12.6 nM
IC50 [2]: 10.7 nM
IC50 [3]: > 10 µM
IC50 [4]: 4.68 nM

O=C(NC1CC1)C1CCN(CC2CC3c4ccccc4Cc4ccc(F)cc4C3O2)CC1 (stereo not shown) [Compound 187]
IC50 [1]: 1.15 nM
IC50 [2]: 18.2 nM
IC50 [3]: > 10 µM
IC50 [4]: 0.427 nM

N#Cc1cccc(CN2CCN(CC3CC4c5ccccc5Cc5ccc(F)cc5C4O3)CC2)c1 (stereo not shown) [Compound 70]
IC50 [1]: 15.8 nM
IC50 [2]: 20.4 nM
IC50 [3]: 0.708 µM
IC50 [4]: 7.24 nM
